The results in this text go back to patent EP4559922A1, “ANTIHISTAMINE COMPOUND, PREPARATION METHOD THEREFOR AND USE THEREOF” (HC Synthetic Pharmaceutical Co., Ltd., priority 2022, dated 2024).

In brackets after ≈: the same amount, converted by molar mass.

Data set [1] in a line: Solubility of the compounds in water, methanol and isopropanol. Type of data set: physicochemical. The note with it: for Solubility in Water: solvent water; for Solubility in Isopropanol: solvent isopropanol; for Solubility in Methanol: solvent methanol.
Method: The solubility in water, methanol, and isopropanol of the compounds of the present disclosure and the comparative compounds were measured separately.
For data set [2], the system named is histamine-induced asthma in guinea pigs. The data set can be described thus: Antiasthmatic effect on histamine-induced asthma in guinea pigs (latency period). Format: in vivo. Particulars: X±s, n = 5; for Post-administration latency period: 1 mg/kg oral gavage, sixty minutes after administration, histamine hydrochloride spray, capped at 8 minutes; for Pre-administration latency period: baseline before administration, histamine hydrochloride 0.8 mg/mL sprayed 40 seconds. The protocol:
The guinea pigs were placed in a polymethyl methacrylate bell jar and a histamine hydrochloride solution was sprayed ultrasonically (0.8 mg/mL) for 40 seconds. The time point at which the guinea pigs developed asthma was recorded. The time of convulsion and fall was taken as the latency period. Guinea pigs with a latency period exceeding 180 seconds were not selected. […] The guinea pigs were administered by oral gavage at a dose of 2 mL/kg·bw. Sixty minutes after the administration, the guinea pigs were placed in bell jars, and histamine hydrochloride solution was sprayed under the same conditions as in the previous selection. The latency period for the onset of asthma was recorded. […] The results were processed statistically.

For data set [3], the system named is isolated ileal smooth muscle of guinea pigs. In words: Effect on muscle tone of isolated ileal smooth muscle of guinea pigs (no histamine added). Particulars: X±s; for Smooth muscle tone After administration: 5 minutes after adding drug; for Smooth muscle tone After administration / Smooth muscle tone Before administration: n = 8; for Smooth muscle tone Before administration: baseline; for Antispasmodic percentage: relative to tone before adding compound, n = 8, 5 min. As to the method: (§1) The guinea pig was knocked unconscious with a wooden stick, and the abdomen was immediately dissected to separate the ileum about 15 cm in length. The contents of the intestinal segment were flushed with Tyrode's solution and placed in Tyrode's solution at a constant temperature of 37°C for later use, and oxygen was supplied simultaneously. The experimental intestinal tract (1 cm in length) was cut and placed into 20 ml of Tyrode's solution at a constant temperature of 37°C with a continuous oxygen supply. One end of the intestine was fixed on the ventilation hook and the other end was connected to the muscle tone transducer and led to the computer interface. The muscle tone value of the ileal smooth muscle was recorded with a BL system. The experiment was carried out after the intestinal segment contraction became stable.
After the ileum contraction curve stabilized, the tone values before adding the drug were recorded, then the drug or DMSO was added, and the average tone value of the ileum contraction curve at that point was recorded 5 minutes later. The operation was repeated 8 times. The antispasmodic percentage was calculated according to the following formula. Antispasmodic percentage =; (Tone value before adding subject compound−Tone value after adding subject compound)/(Tone value before adding subject compound); × 100% [formula]

Data set [4] in a line: Antagonism of histamine-induced contraction of isolated ileal smooth muscle of guinea pigs. The note with it: relative to tone after adding histamine; x±s, n = 8; 3 min. The protocol:
as §1
(§2) After the ileal peristalsis curve stabilized, the tone values before adding the compound were recorded, and then 0.05 mL of histamine was added. […] The operation was repeated 8 times. The antispasmodic percentage was calculated using the following equation. Antispasmodic percentage =; (Tone value after adding histamine−Tone value after adding subject compound)/(Tone value after adding histamine) × 100% [formula]

Another data set deals with histamine. The description is as above. The note with it: x±s, n = 8; for Smooth muscle tone After administration: 3 minutes after adding 0.05 mL compound following histamine; for Smooth muscle tone After addition of histamine: after 0.05 mL histamine, before compound; for Smooth muscle tone Before administration: baseline before histamine. As to the method: as §1, §2
The nature of data set [5]: Accelerated stability test. Type of data set: physicochemical. Particulars: 40°C ± 2°C, relative humidity 75% ± 5%.

For the molecule `O=C1Cc2ccccc2C(=C2CCN(COP(=O)(O)O)CC2)c2ccsc21` [Compound III-1], the “Solubility in Water” value in data set [1] was 20 mg/mL (≈ 49.3 mM). Besides, in data set [2], the Post-administration latency period amounted to 376.25 ± 51.77 s and the Pre-administration latency period was determined as 98.57 ± 49.10 s. Further, in data set [3], the “Smooth muscle tone After administration” value turned out to be 1.18 ± 0.25 g and the “Smooth muscle tone Before administration” value was found to be 1.70 ± 0.17 g. Moreover, the Antispasmodic percentage in data set [3] (5 min) is 30.59±18.11%. The molecule further returned an Antispasmodic percentage in data set [4] of 66.76±16.11%. Moreover, in the data set on histamine, the “Smooth muscle tone After administration” value came out at 1.14 ± 0.23 g, the “Smooth muscle tone After addition of histamine” value worked out at 3.43 ± 1.06 g and the “Smooth muscle tone Before administration” value came out at 1.79 ± 0.21 g.
On to `O=C1Cc2ccccc2C(=C2CCN(CCOP(=O)(O)O)CC2)c2ccsc21` [Compound III-2], for which, in data set [1], the “Solubility in Water” value was determined as 20 mg/mL (≈ 47.7 mM). In data set [2], this molecule displayed a Post-administration latency period of 377.22 ± 50.87 s and a Pre-administration latency period of 99.48 ± 50.88 s. In data set [3], the “Smooth muscle tone After administration” value came to 1.21 ± 0.24 g and the “Smooth muscle tone Before administration” value was determined as 1.70 ± 0.21 g. The same molecule yielded an Antispasmodic percentage in data set [3] (5 min) of 28.82±16.05%. The molecule further showed an Antispasmodic percentage in data set [4] of 65.39±17.28%. In addition, in the data set on histamine, the “Smooth muscle tone After administration” value is 1.18 ± 0.21 g, the “Smooth muscle tone After addition of histamine” value came out at 3.41 ± 0.89 g and the “Smooth muscle tone Before administration” value was found to be 1.75 ± 0.18 g.
For `O=C1Cc2ccccc2C(=C2CCN(CCCOP(=O)(O)O)CC2)c2ccsc21` [Compound III-3], the “Solubility in Isopropanol” value in data set [1] is 24 mg/mL (≈ 55.4 mM). Further, in data set [1], the “Solubility in Water” value was determined as 20 mg/mL (≈ 46.1 mM). Also, in data set [2], the Post-administration latency period was found to be 368.01 ± 50.67 s. Moreover, the Antispasmodic percentage was 30.23±17.82% in data set [3] (5 min) and 66.66±15.49% in data set [4]. Besides, the Content in data set [5] (Month 0) was 99.7%. The Description entry in data set [5] (Month 0), in data set [5] (Month 1), in data set [5] (Month 2), in data set [5] (Month 3) and in data set [5] (Month 6) was “White powder” each time. Further, the Related substances in data set [5] (Month 0) came to 0.03%; in data set [5] (Month 1), 0.05%; in data set [5] (Month 2), 0.10%; in data set [5] (Month 3), 0.15%; in data set [5] (Month 6) it was 0.34%. In addition, in data set [5] (storage 75% relative humidity, Month 1, read-out: Content), the remaining at 730 h came to 99.7%. Further, in data set [5] (storage 75% relative humidity, Month 2, read-out: Content), the remaining at 1460 h is 99.6%. For the same molecule, the remaining at 2190 h in data set [5] (storage 75% relative humidity, Month 3, read-out: Content) is 99.5%. Further, in data set [5] (storage 75% relative humidity, Month 6, read-out: Content), the remaining at 4380 h is 99.2%.
As to `O=C1Cc2ccccc2C(=C2CCN(CCCCOP(=O)(O)O)CC2)c2ccsc21` [Compound III-4], the “Solubility in Water” value in data set [1] was 20 mg/mL (≈ 44.7 mM). In data set [2], this molecule returned a Post-administration latency period of 369.49 ± 51.06 s and a Pre-administration latency period of 99.07 ± 50.25 s. For the same molecule, in data set [3], the “Smooth muscle tone After administration” value came out at 1.16 ± 0.23 g and the “Smooth muscle tone Before administration” value was determined as 1.72 ± 0.16 g. Also, the Antispasmodic percentage in data set [3] (5 min) is 32.55±18.33%. The Antispasmodic percentage in data set [4] amounted to 64.24±17.11%. In addition, in the data set on histamine, the “Smooth muscle tone After administration” value amounted to 1.23 ± 0.24 g, the “Smooth muscle tone After addition of histamine” value worked out at 3.44 ± 0.96 g and the “Smooth muscle tone Before administration” value was determined as 1.78 ± 0.17 g.
With `O=C1Cc2ccccc2C(=C2CCN(CCCCCOP(=O)(O)O)CC2)c2ccsc21` [Compound III-5], the “Solubility in Water” value in data set [1] came to 20 mg/mL (≈ 43.3 mM). In data set [2], this molecule yielded a Post-administration latency period of 375.52 ± 49.26 s and a Pre-administration latency period of 102.32 ± 54.23 s. For the same molecule, in data set [3], the “Smooth muscle tone After administration” value stood at 1.13 ± 0.31 g and the “Smooth muscle tone Before administration” value came out at 1.70 ± 0.20 g. The Antispasmodic percentage in data set [3] (5 min) amounted to 33.53±19.21%. The Antispasmodic percentage in data set [4] worked out at 65.01±18.17%. Further, in the data set with histamine, the “Smooth muscle tone After administration” value was found to be 1.20 ± 0.21 g, the “Smooth muscle tone After addition of histamine” value was found to be 3.43 ± 0.93 g and the “Smooth muscle tone Before administration” value was found to be 1.73 ± 0.21 g.
Turning to `O=C1Cc2ccccc2C(=C2CCN(CCCCOCOP(=O)(O)O)CC2)c2ccsc21` [Compound III-8], the “Solubility in Water” value in data set [1] was found to be 20 mg/mL (≈ 41.9 mM). In data set [2], this molecule showed a Post-administration latency period of 376.24 ± 50.42 s and a Pre-administration latency period of 99.49 ± 51.11 s. Besides, in data set [3], the “Smooth muscle tone After administration” value stood at 1.16 ± 0.21 g and the “Smooth muscle tone Before administration” value was 1.70 ± 0.29 g. This molecule displayed an Antispasmodic percentage in data set [3] (5 min) of 31.76±18.69%. In data set [4], the Antispasmodic percentage was 66.47±18.83%. For the same molecule, in the data set on histamine, the “Smooth muscle tone After administration” value came out at 1.12 ± 0.21 g, the “Smooth muscle tone After addition of histamine” value was found to be 3.42 ± 0.99 g and the “Smooth muscle tone Before administration” value was found to be 1.78 ± 0.20 g.
As for `O=C1Cc2ccccc2C(=C2CCN(CCCCCOCOP(=O)(O)O)CC2)c2ccsc21` [Compound III-9], the “Solubility in Water” value in data set [1] was 20 mg/mL (≈ 40.7 mM). Moreover, the Post-administration latency period in data set [2] is 267.95 ± 51.16 s. Moreover, the “Smooth muscle tone After administration” value in data set [3] turned out to be 1.12 ± 0.29 g; in the data set with histamine, 1.17 ± 0.24 g. The Antispasmodic percentage in data set [3] (5 min) worked out at 34.50±19.89%; in data set [4], 67.25±17.74%.
As to `O=C1Cc2ccccc2C(=C2CCN(CCCOP(=O)(O)O)CC2)c2ccsc21` [Compound IV-3], the “Solubility in Isopropanol” value in data set [1] worked out at 1 mg/mL (≈ 2.31 mM). The molecule also returned a Post-administration latency period in data set [2] of 371.38 ± 49.10 s. Besides, the results for the Antispasmodic percentage in data set [3] (5 min) and in data set [4] were 30.95±19.69% and 64.91±18.92%, respectively. The Content in data set [5] (Month 0) was 99.7%; in data set [5] (Month 1, 43800 min) it was 99.7%; in data set [5] (Month 2, 87600 min), 99.6%; in data set [5] (Month 3, 131400 min) it was 99.6%; in data set [5] (Month 6, 262800 min), 99.4%. Moreover, the Description entry in data set [5] (Month 0), in data set [5] (Month 1), in data set [5] (Month 2), in data set [5] (Month 3) and in data set [5] (Month 6) was “White powder” throughout. Besides, the Related substances in data set [5] (Month 0) was determined as 0.03%; in data set [5] (Month 1), 0.05%; in data set [5] (Month 2), 0.09%; in data set [5] (Month 3), 0.12%; in data set [5] (Month 6), 0.25%.
For `OCCCCN1CCC(=C2c3ccc(Cl)cc3CCc3cccnc32)CC1` [Hydroxybutyl desloratadine, reference compound], in data set [1], the “Solubility in Isopropanol” value is 28 mg/mL (≈ 73.1 mM), the “Solubility in Methanol” value is 22 mg/mL (≈ 57.5 mM) and the “Solubility in Water” value was “Practically insoluble”. Moreover, the Post-administration latency period in data set [2] was determined as 286.23 ± 55.29 s. Moreover, in data set [3], the “Smooth muscle tone After administration” value worked out at 1.31 ± 0.28 g and the Antispasmodic percentage was 24.27±12.31%. This molecule also returned an Antispasmodic percentage in data set [4] of 57.77±13.69%. For the same molecule, in the data set with histamine, the “Smooth muscle tone After administration” value worked out at 1.45 ± 0.47 g.
As to `OCCN1CCC(=C2c3ccc(Cl)cc3CCc3cccnc32)CC1` [Hydroxyethyl desloratadine, reference compound], in data set [1], the “Solubility in Isopropanol” value was 21 mg/mL (≈ 59.2 mM), the “Solubility in Methanol” value worked out at 27 mg/mL (≈ 76.1 mM) and the “Solubility in Water” value is recorded as “Practically insoluble”. The same molecule showed a Post-administration latency period in data set [2] of 281.12 ± 54.82 s. Also, in data set [3], the “Smooth muscle tone After administration” value is 1.33 ± 0.27 g and the Antispasmodic percentage was found to be 21.76±10.04%. Moreover, the Antispasmodic percentage in data set [4] stood at 58.53±10.79%. Moreover, the “Smooth muscle tone After administration” value with histamine is 1.41 ± 0.43 g.
